According to patent publication US7160911B2, “Diarylcycloalkyl derivatives, process for their preparation and their use as pharmaceuticals” (Sanofi-Aventis Deutschland GmbH, priority 2003, dated 2007):

What follows are compounds tested against T1, human PPARalpha (Homo sapiens, UniProt Q07869) (assay: Cellular PPARalpha assay (stably transfected HEK luciferase reporter cell line)). Settings: PPARalpha reporter cell line (HEK, GR-GAL4-humanPPARalpha-LBD).
T1 construct: amino acids S167–Y468; expressed in transfected cells; host or cells: HEK (human embryo kidney) cells, stably transfected with the pcDNA3 construct
T1 sequence (Q07869 167-468): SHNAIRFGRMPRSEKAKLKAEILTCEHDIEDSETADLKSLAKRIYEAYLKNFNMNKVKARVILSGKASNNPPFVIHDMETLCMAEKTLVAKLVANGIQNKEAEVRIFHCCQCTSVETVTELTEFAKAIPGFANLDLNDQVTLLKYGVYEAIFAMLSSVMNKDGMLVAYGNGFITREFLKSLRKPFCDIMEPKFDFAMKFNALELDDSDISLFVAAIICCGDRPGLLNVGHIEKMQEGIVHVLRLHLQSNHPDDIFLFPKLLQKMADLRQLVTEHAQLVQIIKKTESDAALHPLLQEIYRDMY
Assay type: cell-based
Method: Determination of EC50 Values of PPAR Agonists in the Cellular PPARalpha Assay
The potency of substances which bind to human PPARalpha and activate in an agonistic manner is analyzed using a stably transfected HEK cell line (HEK=human embryo kidney) which is referred to here as PPARalpha reporter cell line. It contains two genetic elements, a luciferase reporter element (pdeltaM-GAL4-Luc-Zeo) and a PPARalpha fusion protein (GR-GAL4-humanPPARalpha-LBD) which mediates expression of the luciferase reporter element depending on a PPARalpha ligand. The stably and constitutively expressed fusion protein GR-GAL4-humanPPARalpha-LBD binds in the cell nucleus of the PPARalpha reporter cell line via the GAL4 protein portion to the GAL4 DNA binding motifs 5′-upstream of the luciferase reporter element which is integrated in the genome of the cell line.
There is only little expression of the luciferase reporter gene without addition of a PPARalpha ligand if fatty acid-depleted fetal calf serum (cs-FCS) is used in the assay. PPARalpha ligands bind and activate the PPARalpha fusion protein and thereby bring about expression of the luciferase reporter gene. The luciferase which is formed can be detected by means of chemiluminescence via an appropriate substrate.
The PPARalpha reporter cell line was prepared in 2 stages. Firstly, the luciferase reporter element was constructed and stably transfected into HEK cells. For this purpose, five binding sites of the yeast transcription factor GAL4 (each 5′-CGGAGTACTGTCCTCCGAG-3′) (SEQ ID No. 1) were cloned in 5′-upstream of a 68 bp-long minimal MMTV promoter (Genbank Accession # V01175). The minimal MMTV promoter section contains a […] and a TATA element in order to enable efficient transcription by RNA polymerase II. The cloning and sequencing of the GAL4-MMTV construct took place in analogy to the description of Sambrook J. et. al. (Molecular cloning, Cold Spring Harbor Laboratory Press, 1989). Then the complete Photinus pyralis gene (Genbank Accession # M15077) was cloned in 3′-downstream of the GAL4-MMTV element. After sequencing, the luceriferase reporter element consisting of five GAL4 binding sites, MMTV promoter and luciferase gene was recloned into a plasmid which confers zeocin resistance in order to obtain the plasmid pdeltaM-GAL4-Luc-Zeo. This vector was transfected into HEK cells in accordance with the statements in Ausubel, F. M. et al. (Current protocols in molecular biology, Vol. 1–3, John Wiley & Sons, Inc., 1995).
In a second step, the PPARalpha fusion protein (GR-GAL4-humanPPARalpha-LBD) was introduced into the stable cell clone described. For this purpose, initially the cDNA coding for the N-terminal 76 amino acids of the glucocorticoid receptor (Genbank Accession # P04150) was linked to the cDNA section coding for amino acids 1–147 of the yeast transcription factor GAL4 (Genbank Accession # P04386). The cDNA of the ligand-binding domain of the human PPARalpha receptor (amino acids S167–Y468; Genbank Accession # S74349) was cloned in at the 3′-end of this GR-GAL4 construct. The fusion construct prepared in this way (GR-GAL4-humanPPARalpha-LBD) was recloned into the plasmid pcDNA3 (from Invitrogen) in order to enable constitutive expression therein by the cytomegalovirus promoter. This plasmid was linearized with a restriction endonuclease and stably transfected into the previously described cell clone containing the luciferase reporter element. The finished PPARalpha reporter cell line which contains a luciferase reporter element and constitutively expresses the PPARalpha fusion protein (GR-GAL4-human PPARalpha-LBD) was isolated by selection with zeocin (0.5 mg/ml) and G418 (0.5 mg/ml).
The activity of PPARalpha agonists is determined in a 3-day assay which is described below: […]

SMILES | EC50 [nM]
Cc1ccc(-c2nc(CO[C@H]3CCC[C@@H](OCc4cccc(C)c4C(=O)O)C3)c(-c3ccccc3)o2)cc1 [Example 11, 2-methyl-6-[(1R,3S)-3-(5-phenyl-2-p-tolyloxazol-4-ylmethoxy)cyclohexyloxy-methyl]benzoic acid] | 27
Cc1ccc(-c2nc(CO[C@H]3CCC[C@@H](OCc4cccc(C)c4C(=O)O)C3)c(C)o2)o1 [Example 4, 2-methyl-6-{(1R,3S)-3-[5-methyl-2-(5-methylfuran-2-yl)oxazol-4-ylmethoxy]cyclohexyloxy-methyl}benzoic acid] | 0.6
COc1cccc(-c2nc(CO[C@H]3CCC[C@@H](OCc4cccc(C)c4C(=O)O)C3)c(-c3ccccc3)o2)c1 [Example 12, 2-{(1R,3S)-3-[2-(3-methoxyphenyl)-5-phenyloxazol-4-ylmethoxy]cyclohexyloxy-methyl}-6-methylbenzoic acid] | 34
COCCOc1cc(-c2nc(CO[C@H]3CCC[C@@H](OCc4cccc(C)c4C(=O)O)C3)c(C)o2)cc(C(F)(F)F)c1 [Example 10] | 0.3
Cc1cccc(CO[C@@H]2CCC[C@H](OCc3nc(-c4ccc5c(c4)OCCO5)oc3C)C2)c1C(=O)O [Example 3] | 0.2
Cc1cccc(CO[C@@H]2CCC[C@H](OCc3coc(C4CCCCC4)n3)C2)c1C(=O)O [Example 13, 2-[(1R,3S)-3-(2-cyclohexyloxazol-4-ylmethoxy)cyclohexyloxymethyl]-6-methylbenzoic acid] | 0.06
Cc1cccc(CO[C@@H]2CCC[C@H](OCc3nc(-c4ccc5ccccc5c4)oc3C)C2)c1C(=O)O [Example 1, 2-methyl-6-[(1R,3S)3-(5-methyl-2-naphthalen-2-yloxazol-4-yl-methoxy)cyclohexyloxymethyl]benzoic acid] | 0.2
